Data as given in patent US11474106B2, “Methods for cytotoxic chemotherapy-based predictive assays” (ACCELERATED MEDICAL DIAGNOSTICS, INC., priority 2015, dated 2022).

What was measured:
5637R [1] = experiment: MTT assay (IC50); format: cell-based; conditions: Homo sapiens, 72 hours
Description: (§1) Drug-DNA adduct formation and repair was measured by accelerator mass spectrometry.
To confirm that 5637 was the original ATCC cell line, and that 5637R originated from the parental 5637 cell line, both cultures were sent to the ATCC Cell Line Authentication Service for cell verification per the ATCC protocol. More specifically, fifteen short tandem repeat (STR) loci plus the gender determining locus, amelogenin, were amplified using the commercially available PowerPlex® 16HS Kit from Promega.
(§2) These two cell lines were also cultured with a range of concentrations of cisplatin, carboplatin, gemcitabine, doxorubicin, methotrexate and vinblastine for 72 hours to determine IC50 for these other drugs (FIG. 16C). These drugs were chosen because of their frequent use in the treatment of bladder cancer.

5637 [2] = experiment: MTT assay (IC50); format: cell-based, human; conditions: Homo sapiens, 72 hours
Description: Thus, we measured the IC50 of the six NSCLC cell lines from Example 2 to both cisplatin and carboplatin to determine if the sensitivity of these six NSCLC cell lines to the two drugs are correlated.
(§3) The cell lines were purchased from the American Type Culture Collection (ATCC, Manassas, Va.) and cultured in the recommended media.
as §1, §2

[3] = format: physicochemical; conditions: 0.5 mg/mL in water
Description: Radiolabeled carboplatin containing C^14 carbon atoms in the cyclobutane dicarboxylic acid group was formulated for human use as a sterile, pyrogen free solution at 5 mg/mL in water.

5637 [4] = experiment: Oxaliplatin-DNA adduct formation and repair by AMS; format: cell-based, human
Description: (§4) To characterize the oxaliplatin-DNA adduct frequency in these cell lines, cells from each cell line were seeded in 60-mm dishes at a density of 1×10^6 cells/dish and allowed to attach overnight in a 37° C. humidified atmosphere containing 5% CO2. […] The cells were then washed twice with phosphate-buffered solution (PBS) and maintained thereafter with oxaliplatin-free culture media. DNA was harvested at hours 0, 2, 4, 8, 24, 28 and 48 hours using a Promega Wizard DNA Purification Kit. Ten micrograms of DNA per sample was converted to graphite and measured by AMS for ^14C quantification. Triplicate sets of AMS experiments were performed and the data was plotted as time vs oxaliplatin-DNA adducts per 10^8 nt.
(§5) Statistics were calculated with n=3 for each cell line. ANOVA analysis of IC50 and AUC data were based on a one-sided t-test.

5637R [5] = experiment: Oxaliplatin-DNA adduct formation and repair by AMS; format: cell-based, human
Description: as §4, §5

cancer patients = experiment: Patient toxicity related to the microdose; format: in vivo, human; conditions: IV microdose, 2.0×10^6 DPM/kg
Description: Radiolabeled carboplatin containing C^14 carbon atoms in the cyclobutane dicarboxylic acid group was formulated for human use as a sterile, pyrogen free solution at 5 mg/mL in water. […] Microdoses of the [^14C]Carboplatin were administered to human cancer patients as a diagnostic reagent, followed by full dose platinum-based chemotherapy and evaluation of response. Within four weeks of the [^14C]carboplatin microdose, these patients received standard of care chemotherapy for their disease, which included either carboplatin or cisplatin. […] Toxicity of the [^14C]carboplatin diagnostic reagent administered as a microdose was assessed using Common Terminology Criteria for Adverse Events (CTCAE).
The dose of carboplatin in the diagnostic microdose was chosen to be sub-toxic and non-therapeutic, to minimize patient chemical and radiation exposure, and to result in AMS measurable carboplatin-DNA monoadducts. Nineteen patients have been administered at least one microdose of [^14C]carboplatin via IV infusion as a diagnostic reagent. Patient toxicity related to the microdose was monitored from the time of IV microdose until the patients received their first chemotherapy.

[6] = Human plasma pharmacokinetics of oxaliplatin microdose; format: in vivo; conditions: metastatic breast cancer patient, IV microdose
Description: Single agent oxaliplatin chemotherapy is given by IV at a personalized dose of 130 mg/m^2 of body surface area using the Du Bois and Du Bois formula (Du Bois, D., and E. F. Du Bois. “A formula to estimate the approximate surface area if height and weight be known. 1916.” Nutrition (Burbank, Los Angeles County, Calif.) 5.5 (1989): 303).
Radiolabeled oxaliplatin containing C^14 carbon atoms in the cyclohexane ring was formulated for human use as a sterile, pyrogen free solution at 0.5 mg/mL in water. […] Unlabeled oxaliplatin and [^14C]oxaliplatin were mixed just before dosing to achieve the required microdose, and injected through the peripheral vein at one arm. Peripheral blood specimens were drawn into BD Vacutainer CPT' tubes with sodium heparin from the other arm at specific time points before and after the administration of the microdose. Plasma samples collected at −5 min, 5 min, 15 min, 30 min, 2 h, 4 h, 8 h, 24 h, and 48 h post microdose injection were analyzed by liquid scintillation counting (FIG. 17A).

[7] = test system: five bladder cancer cell lines (5637, T24, TCCSUP, HT1197, and J82); experiment: Oxaliplatin-DNA adducts by AMS in cell culture; format: cell-based
Description: as §3
as §4, with “Cells” for “To characterize the oxaliplatin-DNA adduct frequency in these cell lines, cells from each cell line”, “24” for “24, 28 and 48”, “the modified” for “a Promega”, “procedure described previously.” for “DNA Purification Kit.”, “nt. […] Oxaliplatin-DNA monoadducts could be detected in all cell lines at all time points. […] Therefore, drug-DNA damage from microdoses of oxaliplatin are predictive of the extent of DNA modification caused by the therapeutic dose in cell culture.” for “nt.”

PBMC = experiment: Microdose-induced oxaliplatin-DNA adduct frequency by AMS; format: in vivo, human
Description: The plasma samples were additionally processed to isolate PBMC, and the DNA was extracted and analyzed using AMS to calculate the oxaliplatin-DNA adduct frequency (both monoadducts and diadducts combined) (FIG. 17B). […] These adduct levels then decrease substantially out to 48 hours post microdosing. […] Overall, the plasma PK and time course of oxaliplatin-DNA adduct formation and repair in PBMC allowed determination of the best time to dose patients prior to biopsy in order to maximize the oxaliplatin-DNA adduct formation, allow for repair in those patients with high repair capacity, minimize the risk of radioactive contamination of PBMC and tumor samples, and also minimize the risk of radioactive contamination of the operating room by blood-borne radiocarbon.
Plasma samples were collected, filtered, and counted by liquid scintillation counting to determine plasma oxaliplatin levels. […] The range of microdose-induced adduct levels (frequencies) for the three colorectal patients was 0.1-6 adducts per 10^8 nt.

[8] = cited from earlier work
[9] = Human plasma pharmacokinetics of carboplatin microdose, liquid scintillation counting; format: in vivo; conditions: four patients
Description: Although the pharmacokinetics of carboplatin are well known for therapeutic doses, it is not known if human pharmacokinetic parameters obtained using a microdose of carboplatin will track those obtained with therapeutic carboplatin dosing. […] This is a requirement for this diagnostic assay to be predictive of response to a therapeutic dose. The pharmacokinetics of microdose carboplatin were also measured in several different patients along with the kinetics of carboplatin-DNA monoadduct formation and repair in PBMC to establish that 24 hours post administration of a microdose of carboplatin is an appropriate time for sampling a patient for this predictive diagnostic assay.
Two of the bladder cancer patients received two doses of [^14C]carboplatin, including the initial diagnostic microdose and a second microdose at the time of full therapeutic dose. This allowed us to compare the pharmacokinetics of carboplatin in plasma after both microdosing and therapeutic dosing (FIG. 11A). […] Therefore, microdosing and therapeutic dosing yield similar carboplatin pharmacokinetics in human patients.
The pharmacokinetics of carboplatin administered as a microdose was assessed in four patients (two with bladder cancer and two with NSLC) for the purpose of comparing interpatient variability and establishing the optimum time point for tumor biopsy sample acquisition.

A549 tumor xenograph = experiment: Tumor response to therapeutic carboplatin in xenograft; format: in vivo, nude mice; conditions: single IV 37.3 mg/kg, 14 days
Excerpt: (§6) Xenograft mouse tumors consisting of one carboplatin resistant and one sensitive tumor type were established for in vivo evaluation of carboplatin-DNA monoadduct formation and repair in tumor tissue and for in vivo evaluation of tumor response to therapeutic dosing with carboplatin. Tumor xenografts were established in 1-2 month old nude mice by injecting approximately one million cells into the left and right flanks, and allowed to develop tumors of less than 1 cm^3 over approximately 4 weeks prior to DNA adduct studies. Mice bearing resistant and sensitive tumors were exposed to either a microdose or therapeutic dose of carboplatin by tail vein injection. DNA isolated from tumor tissue was evaluated for carboplatin-DNA monoadduct frequency levels as a function of time. For tumor response, mice bearing resistant and sensitive tumors were therapeutically treated with a single IV injection of 37.3 mg/kg of carboplatin and then examined for tumor growth as assessed by measuring palpable tumors with a caliper and calculating tumor volume.
(§7) Mice xenografted with sensitive (H232A) and resistant (A549) lung cancer cell lines were infused with a therapeutic dose of carboplatin to assess tumor response. The tumors were measured daily over 14 days post infusion (FIG. 10C). Tumor size was normalized as the ratio of tumor diameter to the tumor diameter measured on day 0 (no change=1.0). […]

H23 2A tumor xenograph = experiment: as above; format: in vivo, nude mice; conditions: H23 2A xenograph; single IV 37.3 mg/kg; 14 days
Excerpt: as §6, §7

[10] = 5637 (parental, Example 11), MTT
[11] = 24 hour culture without oxaliplatin

Nc1ccn([C@@H]2O[C@H](CO)[C@@H](O)C2(F)F)c(=O)n1 [gemcitabine]
IC50 (5637R [1]; MTT): 1440 nM
IC50 5637 [2, 10]: 120 nM

COc1cccc2c1C(=O)c1c(O)c3c(c(O)c1C2=O)C[C@@](O)(C(=O)CO)C[C@@H]3O[C@H]1C[C@H](N)[C@H](O)[C@H](C)O1 [doxorubicin]
IC50 (5637R [1]; MTT): 270 nM
IC50 5637 [2, 10]: 290 nM

CN(Cc1cnc2nc(N)nc(N)c2n1)c1ccc(C(=O)N[C@@H](CCC(=O)O)C(=O)O)cc1 [methotrexate]
IC50 (5637R [1]; MTT): 1240 nM
IC50 5637 [2, 10]: 2010 nM

N[C@@H]1CCCC[14C@H]1N.O=C([O-])C(=O)[O-].[Pt+2] [[^14C]oxaliplatin]
stability to freeze/thaw [3]: stable to free/thaw with no observed precipitation
loss of radiopurity per year ([3]; storage at −20° C.): < 2%
oxaliplatin-DNA adducts at 24 hours (5637 [4]; 10 μM for 24 hours): 710.0±32.2 adducts per 10^8 nucleotide
repair rate 5637 [4, 11]: 1.34±0.30 adducts per 10^8 nucleotides-hour
area under curve (AUC) of oxaliplatin-DNA adducts (5637 [4]; 48 hour study time period): 27,720±2,985 adducts per 10^8 nucleotide-hour
oxaliplatin-DNA adducts at 24 hours (5637R [5]; 10 μM for 24 hours): 259.2±37.3 adducts per 10^8 nucleotide
repair rate (5637R [5]; [11]): 3.48±0.15 adducts per 10^8 nucleotide-hour
area under curve (AUC) of oxaliplatin-DNA adducts (5637R [5]; 48 hour study time period): 9,426±2457 adducts per 10^8 nucleotide-hour
tolerability of the radiolabeled microdose (cancer patients): well tolerated
T1/2 (α), first (fast) phase [6]: 13.3 min
DNA damage concentrations (total oxaliplatin-DNA adducts) ([7]; microdose, 0.1 μM oxaliplatin for 4 hours): 50-100 oxaliplatin-DNA adducts per 10^8 nt
DNA damage concentrations (total oxaliplatin-DNA adducts) ([7]; therapeutic dose, 10 μM oxaliplatin for 4 hours): 5,000-10,000 oxaliplatin-DNA adducts per 10^8 nt
maximum oxaliplatin-DNA adducts in PBMC (PBMC; metastatic breast cancer patient, microdose, first 4 hours): 8 adducts per 10^8 nt
range of microdose-induced adduct levels (frequencies) (PBMC; three colorectal patients, PBMC): 0.1-6 adducts per 10^8 nt

O=C1[O][Pt]2([NH][C@@H]3CCCC[C@H]3[NH]2)[O]C1=O [oxaliplatin, reference compound]
Cmax ([8]; therapeutically treated patients, read-out: plasma Cmax): ~10 µM

CC[C@]1(O)C[C@@H]2CN(CCc3c([nH]c4ccccc34)[C@@](C(=O)OC)(c3cc4c(cc3OC)N(C)[C@H]3[C@@](O)(C(=O)OC)[C@H](OC(C)=O)[C@]5(CC)C=CCN6CC[C@]43[C@@H]65)C2)C1 [vinblastine]
IC50 (5637R [1]): 0.61 nM
IC50 5637 [2]; 5637: 0.6 nM

N.N.O=C([O-])C1(C(=O)[O-])CCC1.[Pt+2] [carboplatin]
in vivo half-life in patients ([8]; in vivo): 78 to 360 min
time to clearance from the blood [9]: ≤ 24 h
tumor response (tumor growth) (A549 tumor xenograph): continued to grow
tumor response (tumor growth) (H23 2A tumor xenograph): did not display any growth
